What was measured:
[1] = Quantum yield measurements versus Acridine Yellow in EtOH; assay type: physicochemical; settings: for φ (%): quantum yield; for φ (quantum yield): excitation 460 nm
In short: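 Emission areas integrated over 510–700 nm were compared with Acridine Yellow in ethanol (Φ=0.47), all excited at 460 nm. The comparative equation was normalized to excitation-wavelength absorbance and solvent refractive index.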

[2] = Absorbance and fluorescence emission spectra (SpectraMax M2); assay type: physicochemical; settings: for λmax Abs. (nm) / λmax Em. (nm): MKAC compound library; for λmax Abs. (nm) / λmax Absorp. (nm): absorbance maximum; for λmax Em. (nm) / λmax Emission (nm): fluorescence emission maximum; for λmax Absorp. (nm) / λmax Emission (nm): MKCA compound library
In short: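 Spectroscopic data, including quantum yields, were recorded with a SpectraMax M2 instrument and analysed in GraphPrism.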

Question: For `CC(=O)Nc1ccc(C2=C3C=CC(N4CCc5ccccc5C4)=[N+]3[B-](F)(F)n3c2ccc3-n2cc(CC(C)C)nn2)cc1` [MKAC66-43], which “φ (%)” value ([1]; MKAC compound library) is on record?
Answer: Its value is 1.92%.

Question: What about the “λmax Abs. (nm)” value [2] of the same compound?
Answer: The value was 469 nm.

Question: And the “λmax Em. (nm)” value [2]?
Answer: Its value is 581 nm.

Question: Which “φ (%)” value ([1]; MKCA compound library) does the source give for `O=C(CCl)Nc1ccc(C2=C3C=CC(N4CCCC4)=[N+]3[B-](F)(F)n3c2ccc3-n2cc(C3CCCC3)nn2)cc1` [MKCA215-5] here?
Answer: Its value is 1.94%.

Question: What about the “λmax Absorp. (nm)” value [2] of the same compound?
Answer: Its value is 463 nm.

Question: And the “λmax Emission (nm)” value [2]?
Answer: The value was 574 nm.

Question: Which results are given for `Cc1ccccc1CNC1=[N+]2C(=C(c3ccc(N)cc3)c3ccc(-n4cc(C5CC5)nn4)n3[B-]2(F)F)C=C1` [MK101-4]?
Answer: φ (quantum yield) ([1]; MK library, Table 5): 0.70%; λmax Absorp. ([2]; MK library, Table 5): 474 nm; λmax Emission ([2]; MK library, Table 5): 566 nm

Question: For `CC(C)Cc1cn(-c2ccc3n2[B-](F)(F)[N+]2=C(N4CC(C)OC(C)C4)C=CC2=C3c2ccc(NC(=O)CCl)cc2)nn1` (stereo not drawn) [MKCA20-43], which “φ (%)” value ([1]; MKCA compound library) is on record?
Answer: Its value is 2.19%.

Question: What about the “λmax Absorp. (nm)” value [2] of the same compound?
Answer: The value was 468 nm.

Question: What about the “λmax Emission (nm)” value [2] of the same compound?
Answer: The value was 585 nm.

Question: What does the source list for `CC(=O)Nc1ccc(C2=C3C=CC(N4CCCC4)=[N+]3[B-](F)(F)n3c2ccc3-n2cc(CO)nn2)cc1` [MKAC215-70]?
Answer: φ (%) ([1]; MKAC compound library): 1.11%; λmax Abs. (nm) [2]: 461 nm; λmax Em. (nm) [2]: 574 nm

Question: With `CC(=O)Nc1ccc(C2=C3C=CC(NCc4ccccc4C)=[N+]3[B-](F)(F)n3c2ccc3-n2cc(C3CC3)nn2)cc1` [MKAC101-4] as the compound, how does the “φ (%)” value ([1]; MKAC compound library) read?
Answer: The value was 23.84%.

Question: What about the “λmax Abs. (nm)” value [2] of the same compound?
Answer: The value was 465 nm.

Question: What about the “λmax Em. (nm)” value [2] of the same compound?
Answer: Its value is 563 nm.

Question: What does the source list for `CCOc1ccccc1CNC1=[N+]2C(=C(c3ccc(NC(C)=O)cc3)c3ccc(-n4cc(CC(C)C)nn4)n3[B-]2(F)F)C=C1` [MKAC103-43]?
Answer: φ (%) ([1]; MKAC compound library): 22.79%; λmax Abs. (nm) [2]: 465 nm; λmax Em. (nm) [2]: 560 nm

Question: For `Nc1ccc(C2=C3C=CC(N4CCc5ccccc5C4)=[N+]3[B-](F)(F)n3c2ccc3-n2cc(CC3CCCCC3)nn2)cc1` [MK66-8], which “φ (quantum yield)” value ([1]; MK library, Table 5) is on record?
Answer: The value was 0.12%.

Question: What about the “λmax Absorp.” value ([2]; MK library, Table 5) of the same compound?
Answer: The value was 480 nm.

Question: And the “λmax Emission” value ([2]; MK library, Table 5)?
Answer: Its value is 590 nm.

Question: With `CC(C)(C)c1cn(-c2ccc3n2[B-](F)(F)[N+]2=C(N4CCCCC4)C=CC2=C3c2ccc(NC(=O)CCl)cc2)nn1` [BDCCA-1] as the compound, how does the “φ (quantum yield)” value ([1]; BDCCA library, Table 4) read?
Answer: Its value is 0.7%.

Question: What about the “λmax Absorp.” value ([2]; BDCCA library, Table 4) of the same compound?
Answer: The value was 468 nm.

Question: And the “λmax Emission” value ([2]; BDCCA library, Table 4)?
Answer: Its value is 581 nm.

Question: With `CC(=O)Nc1ccc(C2=C3C=CC(N(C)Cc4ccccc4)=[N+]3[B-](F)(F)n3c2ccc3-n2cc(C3CCCC3)nn2)cc1` [MKAC195-5] as the compound, how does the “φ (%)” value ([1]; MKAC compound library) read?
Answer: The value was 4.18%.

Question: And the “λmax Abs. (nm)” value [2]?
Answer: The value was 467 nm.

Question: And the “λmax Em. (nm)” value [2]?
Answer: The value was 578 nm.

Question: What does the source list for `COc1ccc(OC)c(CNC2=[N+]3C(=C(c4ccc(N)cc4)c4ccc(-n5cc(C6CCCC6)nn5)n4[B-]3(F)F)C=C2)c1` [MK181-5]?
Answer: φ (quantum yield) ([1]; MK library, Table 5): 0.43%; λmax Absorp. ([2]; MK library, Table 5): 475 nm; λmax Emission ([2]; MK library, Table 5): 563 nm

Question: Which results are given for `O=C(CCl)Nc1ccc(C2=C3C=CC(N4CCCC4)=[N+]3[B-](F)(F)n3c2ccc3-n2cc(CO)nn2)cc1` [MKCA215-70]?
Answer: φ (%) ([1]; MKCA compound library): 1.97%; λmax Absorp. (nm) [2]: 459 nm; λmax Emission (nm) [2]: 568 nm

Question: Which results are given for `CCCc1cn(-c2ccc3n2[B-](F)(F)[N+]2=C(N4CCCCC4)C=CC2=C3c2ccc(N)cc2)nn1` [BDC-48]?
Answer: φ (quantum yield) ([1]; BDC library, Table 2): 0.10%; λmax Absorp. ([2]; BDC library, Table 2): 476 nm; λmax Emission ([2]; BDC library, Table 2): 582 nm

Question: What does the source list for `O=C(CCl)Nc1ccc(C2=C3C=CC(N4CCc5ccccc5C4)=[N+]3[B-](F)(F)n3c2ccc3-n2cc(C3CCCC3)nn2)cc1` [MKCA66-5]?
Answer: φ (%) ([1]; MKCA compound library): 3.11%; λmax Absorp. (nm) [2]: 470 nm; λmax Emission (nm) [2]: 587 nm

Question: Which “φ (quantum yield)” value ([1]; MK library, Table 5) does the source give for `CN(Cc1ccccc1)C1=[N+]2C(=C(c3ccc(N)cc3)c3ccc(-n4cc(CO)nn4)n3[B-]2(F)F)C=C1` [MK195-70] here?
Answer: The value was 0.27%.

Question: What about the “λmax Absorp.” value ([2]; MK library, Table 5) of the same compound?
Answer: The value was 475 nm.

Question: And the “λmax Emission” value ([2]; MK library, Table 5)?
Answer: Its value is 592 nm.

Question: For `Nc1ccc(C2=C3C=CC(N4CCCCC4)=[N+]3[B-](F)(F)n3c2ccc3-n2cc(C3(O)CCCC3)nn2)cc1` [BDC-67], which “φ (quantum yield)” value ([1]; BDC library, Table 2) is on record?
Answer: The value was 0.09%.

Question: What about the “λmax Absorp.” value ([2]; BDC library, Table 2) of the same compound?
Answer: The value was 478 nm.

Question: And the “λmax Emission” value ([2]; BDC library, Table 2)?
Answer: Its value is 595 nm.

Question: For `Cc1ccc(-c2cn(-c3ccc4n3[B-](F)(F)[N+]3=C(N5CCCCC5)C=CC3=C4c3ccc(N)cc3)nn2)cc1` [BDC-10], which “φ (quantum yield)” value ([1]; BDC library, Table 2) is on record?
Answer: The value was 0.28%.

Question: And the “λmax Absorp.” value ([2]; BDC library, Table 2)?
Answer: Its value is 470 nm.

Question: And the “λmax Emission” value ([2]; BDC library, Table 2)?
Answer: The value was 564 nm.

Question: What does the source list for `Cc1ccccc1CNC1=[N+]2C(=C(c3ccc(NC(=O)CCl)cc3)c3ccc(-n4cc(CCc5ccccc5)nn4)n3[B-]2(F)F)C=C1` [MKCA101-19]?
Answer: φ (%) ([1]; MKCA compound library): 33.37%; λmax Absorp. (nm) [2]: 463 nm; λmax Emission (nm) [2]: 562 nm

Question: Which results are given for `COc1ccc(OC)c(CNC2=[N+]3C(=C(c4ccc(NC(=O)CCl)cc4)c4ccc(-n5cc(C6CC6)nn5)n4[B-]3(F)F)C=C2)c1` [MKCA181-4]?
Answer: φ (%) ([1]; MKCA compound library): 19.35%; λmax Absorp. (nm) [2]: 464 nm; λmax Emission (nm) [2]: 566 nm

Question: For `CC(=O)Nc1ccc(C2=C3C=CC(N4CCc5ccccc5C4)=[N+]3[B-](F)(F)n3c2ccc3-n2cc(CCc3ccccc3)nn2)cc1` [MKAC66-19], which “φ (%)” value ([1]; MKAC compound library) is on record?
Answer: Its value is 1.76%.

Question: And the “λmax Abs. (nm)” value [2]?
Answer: Its value is 470 nm.

Question: What about the “λmax Em. (nm)” value [2] of the same compound?
Answer: The value was 580 nm.
